Measured values reported in US8343939B2, “Methods of modulating angiogenesis” (Joslin Diabetes Center, Inc., priority 2007, dated 2013).

How the values were obtained:
[1] = tested on: eNOS Ser1179 phosphorylation; assay: Western blot of eNOS phosphorylation in BAEC; format: cell-based, bovine; conditions: for eNOS Ser1179 phosphorylation increased during stimulation: insulin 100 nM or VEGF 1 nM
Protocol: (§1) Bovine aortic endothelial cells (BAEC) were isolated by scraping the luminal side of a calf aorta with a cover glass and transferring the harvested material to a 100 mm cell culture dish. The primary culture and subcultures were grown in Dulbecco's modified Eagle medium (DMEM) with 5.5 mM glucose, 10% (v/v) horse serum, 25 mM HEPES, 100 U/ml penicillin, and 100 μg/ml streptomycin in collagen I-coated dishes (BioCoat, BD BioSciences). Purity of the cultures was validated by the presence of typical “cobblestone” morphology during phase-contrast microscopy (16) and by the ability of cells to take up acetylated LDL (DiI AcLDL, Molecular Probes, Eugene, Oreg.). Cultures used for experiments were plated in 6-well plates (9.5 cm^2 wells), except for PKC translocation assays (see below). The cells were serum-starved for 16 hours before stimulation by replacing growth medium with DMEM containing 0.1% (w/v) bovine serum albumin. At the time of stimulation, cultures were typically 3 days old and confluent. GF109203X (GFX) (Calbiochem, San Diego, Calif.), wortmannin (Calbiochem), phorbol-12-myristate-13-acetate (PMA) (Sigma, St. Louis, Mo.), bovine insulin (Sigma), and VEGF-A165 (R & D Systems, Minneapolis, Minn.) were added directly to the culture medium when indicated, using an identical volume of solvent as control.
(§2) Cultures were washed twice with ice-cold PBS and lysed in a buffer containing Tris (20 mM, pH 7.5), Triton X-100 (1% v/v), sodium pyrophosphate (2.5 mM); NaF (10 mM), NaCl (140 mM), EDTA (1 mM), EGTA (1 mM), β-glycerophosphate (1 mM), Na3VO4 (1 mM), leupeptin (1 μg/ml=2 μM), aprotinin (1 μg/ml=[…]), and phenylmethylsulfonylfluoride (1 mM). Protein concentration was measured by the Bradford method and samples reduced in modified Laemmli buffer (Invitrogen) and heated at 70° C. for 10 minutes. Equal sample volume and protein mass and reduced samples were separated on precast minigels (NuPAGE tris-acetate gels, Invitrogen) and electrotransferred to nitrocellulose.
(§3) Primary antibody targets were visualized by incubation with horseradish peroxidase-linked secondary antibodies, enhanced chemiluminescence (Amersham Biosciences (currently GE Healthcare), Piscataway, N.J.), and exposure to X-ray film (Kodak, New Haven, Conn.). The film was scanned and signal intensity of protein bands quantitated with ImageQuant software (version 5.1, Molecular Dynamics/Amersham Biosciences/GE Healthcare, Piscataway, N.J.). The intensity of phospho-specific immunoblot was normalized to the intensity of the unstimulated condition and of the nonphospho-specific protein.
BAEC were stimulated with insulin (100 nM, 5 minutes) or VEGF (1 nM, 5 minutes) after pretreatment with PMA (100 nM, 30 minutes) or vehicle as a control (DMSO, 0.2% (v/v)). Akt and eNOS phosphorylation in the BAEC was examined. In some experiments (FIGS. 1C and 1D), BAEC were also incubated with GFX (1 μM) or vehicle (DMSO 0.2%) 60 minutes before insulin or VEGF stimulation.
(§4) BAEC were stimulated with insulin (100 nM, 5 minutes) or VEGF (1 nM, 5 minutes) after pretreatment with wortmannin (100 nM, 30 minutes before insulin or VEGF stimulation) or vehicle (DMSO 0.2% (v/v)). In some experiments (FIG. 2C), BAEC were incubated with wortmannin (60 minutes before VEGF stimulation) or DMSO, then with PMA (30 minutes before VEGF stimulation) or DMSO.

[2] = tested on: Akt Ser473 phosphorylation; assay: Western blot of Akt phosphorylation in BAEC; format: cell-based, bovine; conditions: for decrease in Akt Ser473 phosphorylation: PMA 100 nM, 30 minutes; for Akt Ser473 phosphorylation increased after stimulation: BAEC, insulin 100 nM or VEGF 1 nM
Protocol: as §1, §2, §3
BAEC were stimulated with insulin (100 nM, 5 minutes) or VEGF (1 nM, 5 minutes) after pretreatment with PMA (100 nM, 30 minutes) or vehicle as a control (DMSO, 0.2% (v/v)). Akt and eNOS phosphorylation in the BAEC was examined. […]
as §4

PKCδ = conditions: for translocation of PKCδ from cytosol to membrane fractions: VEGF 1 nM, 3, 10 or 30 minutes, PMA 100 nM, 10 minutes
Protocol: (§5) For each condition, three 15 cm plates (each 151 cm^2) were used. After stimulation, the plates were washed twice in ice-cold PBS and once in a hypertonic lysis buffer (Buffer A) containing Tris (pH 7.5, 20 mM), sucrose (300 mM), EDTA (2 mM), EGTA (0.5 mM), DTT (1 mM), leupeptin (10 μg/ml), and PMSF (1 mM). Each set of 3 plates were then scraped in a combined volume of 3 ml of hypertonic buffer, homogenized in a glass Dounce homogenizer, and centrifuged at 1,000×g for 10 minutes. The supernatant was ultracentrifuged at 100,000×g for 30 minutes, and the ensuing supernatant was taken aside and used as the cytosolic fraction. The pellet was washed once in Buffer B (Buffer A without sucrose), then homogenized in 2.7 ml Buffer B in a glass Dounce homogenizer, and finally lysed by adding 0.3 ml Triton X-100 to a final concentration of 1% (v/v) and rotated for 30 minutes. After ultracentrifugation at 100,000×g for 30 minutes, the supernatant was taken aside and used as the membrane fraction. By using similar volumes for the initial lysis and for the membrane pellet, protein abundance in the cytosol and membrane fraction approximately represent their relative expression in the intact cell. Protein concentration was measured in both fractions with the bicinchoninic acid (BCA) assay, and samples were normalized for protein concentration and assayed by electrophoresis and Western blotting as described below.
(§6) BAEC were stimulated with VEGF (1 nM; 3, 10, or 30 minutes) or PMA (100 nM, 10 minutes).

PKCε = conditions: for translocation of PKCε from cytosol to membrane fractions: VEGF 1 nM, 3, 10 or 30 minutes, PMA 100 nM, 10 minutes
Protocol: as §5, §6

PKCα = PKCα (Bos taurus, UniProt P04409); assay: Membrane translocation of PKC isoforms (cell fractionation, immunoblot) in BAEC; format: cell-based, bovine; conditions: for translocation of PKCα from cytosol to membrane fractions: VEGF 1 nM, 3, 10 or 30 minutes, PMA 100 nM, 10 minutes
BAEC = assay: DNA synthesis by BrdU incorporation in BAEC; format: cell-based, bovine; conditions: control siRNA condition; VEGF 1 nM
Protocol: For measurement of DNA synthesis, cells were trypsin-treated 2 days after transfection with siRNA, and 10,000 cells were added to each well (0.32 cm^2) of 96-well plates in serum-free DMEM with 0.1% BSA, with or without VEGF 1 nM. After 16 hours, cells were labeled with 5-bromo-2′-deoxyuridine (BrdU) according to the manufacturer's instructions (Roche Applied Science, Penzberg, Germany). In short, the medium was replaced with medium containing 10 μM BrdU. After an additional 8 hours, cells were fixed and incubated with anti-BrdU antibody conjugated with peroxidase. After washing, a solution of tetramethyl-benzidine was added, and the color reaction quantitated by measuring the difference between the optical density at 370 and 492 nm.

VEGFR2 = VEGFR2 protein expression (immunoprecipitation and immunoblot) in BAEC; format: cell-based, bovine; conditions: cells transfected with control siRNA; VEGF 1 nM, 5 minutes
Protocol: For VEGFR2 and VEGFR1 immunoprecipitation, approximately 1 mg of protein was immunoprecipitated with 20 μg polyclonal antibody (Santa Cruz Biotechnology, Santa Cruz, Calif.) and washed 3 times with lysis buffer. Whole cell lysate or immunoprecipitates were reduced by addition of modified Laemmli buffer (Invitrogen) and heating to 70° C. for 10 minutes. Samples were then separated on precast minigels (NuPAGE tris-acetate gels, Invitrogen) and electrotransferred to a nitrocellulose membrane. […]
as §3, with “The intensity of phospho-specific immunoblot was normalized to the intensity of the unstimulated condition and of the nonphospho-specific protein.” left out

Erk1/2 phosphorylation = assay: Western blot of Erk1/2 phosphorylation in BAEC; format: cell-based, bovine; conditions: control siRNA; VEGF 1 nM, 5 minutes
Protocol: as §2, §3

eNOS, Akt, Erk, or p38 = assay: Phosphorylation of eNOS, Akt, Erk, p38 after placental growth factor in BAEC; format: cell-based, bovine; conditions: data not shown
Protocol: Next, VEGFR1 and VEGFR2 expression was examined. BAEC were transfected with siRNA, including the PKCε siRNA used in the previous experiments (abbreviated “ε1” here) and a second PKCε (“ε2”), grown, and serum-starved. VEGFR2 (a) or VEGFR1 (b) mRNA was measured in cell lysate by real-time PCR VEGF signal transduction during PKC knockdown could change because VEGFR2 expression results in a secondary change in VEGFR1/Fms-like tyrosine kinase-1 (Flt-1) expression. Indeed, PKCα and PKCδ knockdown increased VEGFR1 mRNA expression to 240±20 and 178±1% of the control siRNA condition, respectively (FIG. 12b, p<0.01). […] VEGFR1 protein or VEGFR1-mediated signal transduction was not detected by Western blotting in these cells. […] Thus, VEGFR1 protein is likely expressed at a very low level compared to VEGFR2 in BAEC. Changes seen in VEGF signal transduction during PKCα and δ knockdown could be influenced by upregulation of VEGFR1, but there is no indication that changes in VEGF signaling during PKCε knockdown can be attributed to changes in VEGFR1 mRNA expression.

[3] = GFX 1 μM, 30 minutes pre-incubation, with or without insulin or VEGF
[4] = control siRNA condition, VEGF 1 nM, 5 minutes

`CN(C)CCCn1cc(C2=C(c3c[nH]c4ccccc34)C(=O)NC2=O)c2ccccc21` [GFX, GF109203X] was tested, and the “effect on the actions of PMA on eNOS phosphorylation” value [1, 3] was “completely prevented” and the “effect on the actions of PMA on Akt phosphorylation” value [2, 3] was “completely prevented”.

With `CCCCCCCCCCCCCC(=O)O[C@@H]1[C@@H](C)[C@@]2(O)[C@@H](C=C(CO)C[C@]3(O)C(=O)C(C)=C[C@@H]23)[C@@H]2C(C)(C)[C@]12OC(C)=O` [PMA, phorbol-12-myristate-13-acetate] the “translocation of PKCδ from cytosol to membrane fractions” value (PKCδ) was “stimulated translocation”, the “translocation of PKCε from cytosol to membrane fractions” value (PKCε) was “stimulated translocation” and the “eNOS Ser1179 phosphorylation increase when VEGF was preceded by PMA” value ([1]; PMA 100 nM, 30 minutes, VEGF 1 nM, 5 minutes) was 2.7±0.4 fold. For the same molecule, the “eNOS Ser1179 phosphorylation increase when insulin was preceded by PMA” value ([1]; PMA 100 nM, 30 minutes, insulin 100 nM, 5 minutes) was 1.2±0.2 fold, the “increase in VEGF-stimulated eNOS Ser1179 phosphorylation” value ([1]; PMA in the presence of wortmannin) was 50±9% and the “translocation of PKCα from cytosol to membrane fractions” value (PKCα) was “stimulated translocation”. For the same molecule, the “decrease in Akt Ser473 phosphorylation” value ([2]; after VEGF stimulation (1 nM, 5 minutes)) was 79±4%, the “decrease in Akt Ser473 phosphorylation” value ([2]; after insulin stimulation (100 nM, 5 minutes)) was 81±4% and the “decrease in Akt Ser473 phosphorylation” value ([2]; basal state) was 59±12%.

In the case of `COC[C@H]1OC(=O)c2coc3c2[C@@]1(C)C1=C(C3=O)[C@@H]2CCC(=O)[C@@]2(C)C[C@H]1OC(C)=O` [wortmannin], the inhibition at 0.1 µM ([1]; Bos taurus, BAEC, wortmannin 100 nM, 30 minutes, VEGF 1 nM, 5 minutes, read-out: inhibition of VEGF-stimulated eNOS phosphorylation) is reported as 30 ± 9% and the “eNOS phosphorylation, % of basal” value ([1]; wortmannin 100 nM, 30 minutes, unstimulated) is reported as 63±1 % of basal.

In the case of VEGF, the “translocation of PKCδ from cytosol to membrane fractions” value (PKCδ) is reported as “stimulated translocation”, the “maximal decrease in cytosol expression of PKCδ” value (PKCδ; VEGF 1 nM, at 3 minutes) is reported as 29±25% and the “maximal increase in membrane expression of PKCδ” value (PKCδ; VEGF 1 nM, at 10 minutes) is reported as 39±10%. For the same molecule, the “translocation of PKCε from cytosol to membrane fractions” value (PKCε) was “stimulated translocation”, the “maximal decrease in cytosol expression of PKCε” value (PKCε; VEGF 1 nM, at 3 minutes) was 57±21% and the “maximal increase in membrane expression of PKCε” value (PKCε; VEGF 1 nM, at 3 minutes) was 31±5%. The “eNOS Ser1179 phosphorylation increased during stimulation” value ([1]; BAEC, 5 minutes) was 2.6±0.5 fold, the “VEGF-stimulated eNOS phosphorylation, fold increase” value [1, 4] was 5.2±0.5 fold and the “VEGF-increased BrdU incorporation” value (BAEC) was 34%. The “translocation of PKCα from cytosol to membrane fractions” value (PKCα) was “stimulated translocation”, the “maximal decrease in cytosol expression of PKCα” value (PKCα; VEGF 1 nM, at 3 minutes) was 18±10% and the “maximal increase in membrane expression of PKCα” value (PKCα; VEGF 1 nM, at 3 minutes) was 72±57%. The “Akt Ser473 phosphorylation increased after stimulation” value ([2]; 5 minutes) was 2.9±0.8 fold, the “VEGF-stimulated Akt phosphorylation, fold increase” value [2, 4] was 1.7±0.1 fold and the “VEGF-stimulated decrease in VEGFR2 protein” value (VEGFR2) was 12±3%. For the same molecule, the “VEGF-increased phosphorylation of Erk1/2” value (Erk1/2 phosphorylation) was 10±1.8 fold.

insulin: bovine insulin (Sigma) was tested, and the “eNOS Ser1179 phosphorylation increased during stimulation” value ([1]; BAEC, 5 minutes) was 1.8±0.2 fold and the “Akt Ser473 phosphorylation increased after stimulation” value ([2]; 5 minutes) was 3.7±0.7 fold.

B1: placental growth factor: placental growth factor, which activates VEGFR1 but not VEGFR2 (protein, UniProt P49763 19-221, looked up)
Placenta growth factor: LPAVPPQQWALSAGNGSSEVEVVPFQEVWGRSYCRALERLVDVVSEYPSEVEHMFSPSCVSLLRCTGCCGDENLHCVPVETANVTMQLLKIRSGDRPSYVELTFSQHVRCECRHSPGRQSPDMPGDFRADAPSFLPPRRSLPMLFRMEWGCALTGSQSAVWPSSPVPEEIPRMHPGRNGKKQQRKPLREKMKPERCGDAVPRR
For B1, the “phosphorylation of eNOS, Akt, Erk, or p38” value (eNOS, Akt, Erk, or p38) was “did not increase”.
